# Values quoted from earlier work in US20100267661A1, “BETA GLUCANS AND METHODS OF USE THEREOF” (ImmuDyne, Inc., priority 2009, published 2010).
# Conditions: rats
substance,measurement,value
"(1,3)-β-D-glucan [particulate yeast (1,3)-β-D-glucan]",Adverse or toxic effects,no adverse or toxic effects
